In patent US20250100993A1, “2-SUBSTITUTED THIAZOLE HSD17B13 INHIBITORS AND USES THEREOF” (Inipharm, Inc., priority 2022, published 2025):

Target: HSD17B13 (Homo sapiens (Human), UniProt Q7Z5P4)
Assay: LC/MS estrone detection assay for HSD17B13 activity (estradiol to estrone)
Type: biochemical
Details: estradiol substrate, LC-MS/MS estrone detection
Protocol: The liquid chromatography/mass spectrometry (LC/MS) estrone detection assay monitors the conversion of estradiol to estrone by HSD17B13. This assay was undertaken in a 96 wp format (Eppendorf deep well Plate 96/500) in an 80 μl reaction volume containing: 4 μM of Estradiol (E2; Cayman; Ser. No. 10/006,315), 6 mM NAD+(Sigma; #N0623) and 30 nM HSD17B13 enzyme (in-house; E. coli expressed His-tagged, purified, soluble protein) in a reaction containing 1M potassium phosphate buffer pH 7.4, with 0.5% vehicle (DMSO). Reactions were incubated for 2 hours at 26.5° C., and estradiol (E2) conversion to estrone (E1) was quantitated by LC-MS/MS based analyte detection for both E2 and E1 using LCMS grade reagents.
Reactions were terminated by the addition of two volumes of acetonitrile (MeCN; LCMS grade; CAS #75/05/8) containing deuterated (D4)-E1 used as internal standard (Clear Synth; #CS-T-54273; 500 ng/mL final concentration). Samples were applied to pre-prepared Bond Elut-C18 extraction cartridges (3 mL; Agilent; Ser. No. 12/102,028), washed and eluted in MeCN. Eluates were dried under nitrogen and re-suspended in 60% methanol (LCMS grade methanol; CAS #67/56/1) before submission for analysis. Aqueous linearity for E2 and E1 were included for quantification.
Analysis of samples was undertaken on a XBridge BEH C18 column (Waters; #186003033) using 0.1% Diethyl Amine in MeCN (mobile phase A; DEA CAS #109-89-7) and 0.1% Diethyl Amine in milli-Q water (mobile phase B) in a 3 min gradient allowing 25% B. Analytes were detected in negative mode using MRM analysis, with E2 having a RT of 1.85 min and E1 having a RT of 2 min. Activity of the enzyme, in the absence of NAD+, was used to evaluate specificity of conversion. Enzyme activity in the presence of test samples was expressed as a percentage of the uninhibited enzyme activity, and plotted versus inhibitor concentration. Non-linear regression was performed using a four-parameter logistic model and GraphPad Prism software (GraphPad Software, La Jolla, CA). All assessments were undertaken in duplicate evaluations and pooled during extraction process and subsequently injected as duplicates for LC-MS/MS analysis.

HSD17B13, sequence (Q7Z5P4 20-300): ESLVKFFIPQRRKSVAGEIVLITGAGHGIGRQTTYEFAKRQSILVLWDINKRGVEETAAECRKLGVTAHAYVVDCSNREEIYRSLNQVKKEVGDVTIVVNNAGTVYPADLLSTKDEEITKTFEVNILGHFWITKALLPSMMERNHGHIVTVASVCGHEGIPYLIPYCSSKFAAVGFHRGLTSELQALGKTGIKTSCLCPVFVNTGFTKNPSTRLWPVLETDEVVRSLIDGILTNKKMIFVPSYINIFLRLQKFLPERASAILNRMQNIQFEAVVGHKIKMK

Structure (SMILES)	IC50 [nM]
O=C(Nc1n[nH]cc1C(=O)NCc1ccccc1C(F)(F)F)c1cc(Cl)c(O)c(Cl)n1 [Example 1, 4,6-dichloro-5-hydroxy-N-(4-((2-(trifluoromethyl)benzyl)carbamoyl)-1H-pyrazol-3-yl)picolinamide]	≤ 100
O=C(Nc1scnc1C(=O)NCc1ccc2c(c1)OCO2)c1cc(Cl)c(O)c(Cl)n1 [Example 41, N-(benzo[d][1,3]dioxol-5-ylmethyl)-5-(4,6-dichloro-5-hydroxypicolinamido)thiazole-4-carboxamide]	100 to 500
Cc1ccc(NC(=O)c2cc(Cl)c(O)c(Cl)c2)c2c(=O)n(C3CCC3c3ccccc3C(F)(F)F)c(C)nc12 (stereo not drawn) [Example 17, 3,5-dichloro-N-(2,8-dimethyl-4-oxo-3-(2-(2-(trifluoromethyl)phenyl)cyclobutyl)-3,4-dihydroquinazolin-5-yl)-4-hydroxybenzamide]	100 to 500
Cn1ncc(NC(=O)c2cc(Cl)c(O)c(Cl)n2)c1C(=O)NCc1ccccc1OC(F)(F)F [Example 5, 4,6-dichloro-5-hydroxy-N-(1-methyl-5-((2-(trifluoromethoxy)benzyl)carbamoyl)-1H-pyrazol-4-yl)picolinamide]	100 to 500
O=C(Nc1nn(C(F)F)cc1C(=O)NCc1ccccc1C(F)(F)F)c1cc(Cl)c(O)c(Cl)c1 [Example 55, 3-(3,5-dichloro-4-hydroxybenzamido)-1-(difluoromethyl)-N-(2-(trifluoromethyl)benzyl)-1H-pyrazole-4-carboxamide]	100 to 500

Results, then the compound that gave them:

IC50 [nM]	Structure (SMILES)
100 to 500	Cn1cc(NC(=O)c2cc(Cl)c(O)c(Cl)n2)c(C(=O)NCc2ccccc2OC(F)(F)F)n1 [Example 4, 4,6-dichloro-5-hydroxy-N-(1-methyl-3-((2-(trifluoromethoxy)benzyl)carbamoyl)-1H-pyrazol-4-yl)picolinamide]
1000 to 10000	O=C(Nc1scnc1C(=O)NCC1(F)CC1)c1cc(Cl)c(O)c(Cl)n1 [Example 36, 5-(4,6-dichloro-5-hydroxypicolinamido)-N-((1-fluorocyclopropyl)methyl)thiazole-4-carboxamide]
100 to 500	CS(=O)(=O)c1ccccc1CNC(=O)c1ncsc1NC(=O)c1cc(Cl)c(O)c(Cl)n1 [Example 42, 5-(4,6-dichloro-5-hydroxypicolinamido)-N-(2-(methylsulfonyl)benzyl)thiazole-4-carboxamide]
100 to 500	CC(C)(C)CCNC(=O)c1ncsc1NC(=O)c1cc(Cl)c(O)c(Cl)c1 [Example 46, 5-(3,5-dichloro-4-hydroxybenzamido)-N-(3,3-dimethylbutyl)thiazole-4-carboxamide]
≤ 100	O=C(Nc1ccc(-c2ccccc2)nc1C(=O)NCc1ccccc1OC(F)(F)F)c1cc(Cl)c(O)c(Cl)c1 [Example 57, 3-(3,5-dichloro-4-hydroxybenzamido)-6-phenyl-N-(2-(trifluoromethoxy)benzyl)picolin amide]
100 to 500	CC(C)(C)CCNC(=O)c1ncsc1NC(=O)c1cc(Cl)c(O)c(Cl)n1 [Example 35, 5-(4,6-dichloro-5-hydroxypicolinamido)-N-(3,3-dimethylbutyl)thiazole-4-carboxamide]
100 to 500	Cn1c(=O)n(Cc2ccccc2C(F)(F)F)c(=O)c2c(NC(=O)c3cc(Cl)c(O)c(Cl)n3)cccc21 [Example 20, 4,6-dichloro-5-hydroxy-N-(1-methyl-2,4-dioxo-3-(2-(trifluoromethyl)benzyl)-1,2,3,4-tetrahydroquinazolin-5-yl)picolinamide]

Same assay, conditions: estradiol substrate, LCMS; read-out: HSD17B13 Inhibition_Estradiol Substrate_LCMS: Ki

Ki [nM]	Structure (SMILES)
≤ 50	O=C(Nc1sc(-c2cncc(F)c2)nc1C(=O)NCc1ccccc1C(F)(F)F)c1cc(Cl)c(O)c(Cl)n1 [Example 76]
50 to 100	O=C(Nc1sc(-c2cc(CN3CCCC3)ccc2F)nc1C(=O)NCc1ccccc1C(F)(F)F)c1cc(F)c(O)c(Cl)c1 [Example 105, 5-(3-chloro-5-fluoro-4-hydroxybenzamido)-2-(2-fluoro-5-(pyrrolidin-1-ylmethyl)phenyl)-N-(2-(trifluoromethyl)benzyl)thiazole-4-carboxamide]
≤ 50	O=C(Nc1sc(-c2ccc[nH]c2=O)nc1C(=O)NCc1ccccc1C(F)(F)F)c1cc(Cl)c(O)c(Cl)c1 [Example 77]
